Measurements: paper PMC11859184, “Synthesis and Evaluation of ^68Ga- and ^177Lu-Labeled [diF-Pro^14]Bombesin(6−14) Analogs for Detection and Radioligand Therapy of Gastrin-Releasing Peptide Receptor-Expressing Cancer” (Pharmaceuticals, 2025)
Read-outs that look alike come from different tables or passages of the source.

Assay: Ex vivo biodistribution of 68Ga-labeled tracers in PC-3 tumor-bearing mice
Settings: mouse, 1 h pi; for tissue to tissue ratio at 1 h: male, NOD.Cg-Rag1^tm1Mom Il2rg^tm1Wjl/SzJ (NRG), iv, total radioactivity; for tissue uptake at 1 h: intravenous
Experimental: PET/CT imaging and biodistribution studies were conducted using male NOD.Cg-Rag1^tm1Mom Il2rg^tm1Wjl/SzJ (NRG) mice following previously published procedures. The studies were carried out in compliance with the guidelines established by the Canadian Council on Animal Care and approved by Animal Ethics Committee of the University of British Columbia (protocol number A20-0113, approved on 30 September 2022). The mice were anaesthetized and subcutaneously implanted with 5 × 10^6 PC-3 cells (100 µL; 1:1 PBS/Matrigel) behind the left shoulder. PET/CT imaging and biodistribution studies were performed once the tumors reached a diameter of 5–8 mm, typically after approximately 4 weeks of growth.
For ex vivo biodistribution studies, the mice were injected with the ^68Ga-labeled tracer (2–4 MBq) via a lateral caudal tail vein. For blocking [^68Ga]Ga-LW02060, the mice were co-injected with 100 μg of [D-Phe^6,Leu-NHEt^13,des-Met^14]Bombesin(6–14). For blocking [^68Ga]Ga-LW02080, the mice were co-injected with 100 μg of its nonradioactive standard Ga-LW02080. At 1 h pi, the mice were euthanized by CO2 inhalation. Blood and organs/tissues of interest were collected, weighed, and counted using a gamma counter.

[1] = tumor/blood, blocked (100 µg blocking agent co-injected), read-out: Tumor/blood uptake ratio
[2] = tumor/blood, n = 4, read-out: Tumor/blood uptake ratio
[3] = tumor/bone, blocked (100 µg blocking agent co-injected), read-out: Tumor/bone uptake ratio
[4] = tumor/bone, n = 4, read-out: Tumor/bone uptake ratio
[5] = tumor/kidney, blocked (100 µg blocking agent co-injected), read-out: Tumor/kidney uptake ratio
[6] = tumor/kidney, n = 4, read-out: Tumor/kidney uptake ratio
[7] = tumor/muscle, blocked (100 µg blocking agent co-injected), read-out: Tumor/muscle uptake ratio
[8] = tumor/muscle, n = 4, read-out: Tumor/muscle uptake ratio
[9] = tumor/pancreas, blocked (100 µg blocking agent co-injected), read-out: Tumor/pancreas uptake ratio
[10] = tumor/pancreas, n = 4, read-out: Tumor/pancreas uptake ratio
[11] = PC-3 tumor, 100 ug, blocked (100 µg blocking agent co-injected), read-out: PC-3 tumor uptake
[12] = PC-3 tumor, n = 4, read-out: PC-3 tumor uptake
[13] = adrenal glands, 100 ug, blocked (100 µg blocking agent co-injected), read-out: Adrenal glands uptake
[14] = adrenal glands, n = 4, read-out: Adrenal glands uptake
[15] = blood, 100 ug, blocked (100 µg blocking agent co-injected), read-out: Blood uptake
[16] = blood, n = 4, read-out: Blood uptake
[17] = bone, 100 ug, blocked (100 µg blocking agent co-injected), read-out: Bone uptake
[18] = bone, n = 4, read-out: Bone uptake
[19] = brain, 100 ug, blocked (100 µg blocking agent co-injected), read-out: Brain uptake
[20] = brain, n = 4, read-out: Brain uptake
[21] = fat, 100 ug, blocked (100 µg blocking agent co-injected), read-out: Fat uptake
[22] = fat, n = 4, read-out: Fat uptake
[23] = heart, 100 ug, blocked (100 µg blocking agent co-injected), read-out: Heart uptake
[24] = heart, n = 4, read-out: Heart uptake
[25] = kidneys, 100 ug, blocked (100 µg blocking agent co-injected), read-out: Kidneys uptake
[26] = kidneys, n = 4, read-out: Kidneys uptake
[27] = large intestine, 100 ug, blocked (100 µg blocking agent co-injected), read-out: Large intestine uptake
[28] = large intestine, n = 4, read-out: Large intestine uptake
[29] = liver, 100 ug, blocked (100 µg blocking agent co-injected), read-out: Liver uptake
[30] = liver, n = 4, read-out: Liver uptake
[31] = lungs, 100 ug, blocked (100 µg blocking agent co-injected), read-out: Lungs uptake
[32] = lungs, n = 4, read-out: Lungs uptake
[33] = muscle, 100 ug, blocked (100 µg blocking agent co-injected), read-out: Muscle uptake
[34] = muscle, n = 4, read-out: Muscle uptake
[35] = pancreas, 100 ug, blocked (100 µg blocking agent co-injected), read-out: Pancreas uptake
[36] = pancreas, n = 4, read-out: Pancreas uptake
[37] = small intestine, 100 ug, blocked (100 µg blocking agent co-injected), read-out: Small intestine uptake
[38] = small intestine, n = 4, read-out: Small intestine uptake
[39] = spleen, 100 ug, blocked (100 µg blocking agent co-injected), read-out: Spleen uptake
[40] = spleen, n = 4, read-out: Spleen uptake
[41] = stomach, 100 ug, blocked (100 µg blocking agent co-injected), read-out: Stomach uptake
[42] = stomach, n = 4, read-out: Stomach uptake
[43] = testes, 100 ug, blocked (100 µg blocking agent co-injected), read-out: Testes uptake
[44] = testes, n = 4, read-out: Testes uptake

CC(C)C[C@H](NC(=O)[C@H](Cc1cnc[nH]1)N(C)C(=O)CNC(=O)[C@@H](NC(=O)[C@H](C)NC(=O)[C@H](Cc1c[nH]c2ccccc12)NC(=O)[C@H](CCC(N)=O)NC(=O)[C@@H](Cc1ccccc1)NC(=O)CN1CCC(NC(=O)CN2CCN(CC(=O)O)CCN(CC(=O)O)CCN(CC(=O)O)CC2)CC1)C(C)(C)C)C(=O)N1CC(F)(F)C[C@H]1C(N)=O [[^68Ga]Ga-LW02060, metal not drawn]
tissue to tissue ratio at 1 h [1]: 3.72 ± 0.74 | tissue to tissue ratio at 1 h [2]: 29.1 ± 3.62 | tissue to tissue ratio at 1 h [3]: 22.3 ± 8.24 | tissue to tissue ratio at 1 h [4]: 179 ± 46.9 | tissue to tissue ratio at 1 h [5]: 0.54 ± 0.03 | tissue to tissue ratio at 1 h [6]: 4.86 ± 0.76 | tissue to tissue ratio at 1 h [7]: 17.7 ± 3.85 | tissue to tissue ratio at 1 h [8]: 141 ± 19 | tissue to tissue ratio at 1 h [9]: 2.87 ± 0.84 | tissue to tissue ratio at 1 h [10]: 5.52 ± 0.78 | tissue uptake at 1 h [11]: 6.11 ± 0.42 %ID/g | tissue uptake at 1 h [12]: 16.8 ± 2.7 %ID/g | tissue uptake at 1 h [13]: 0.67 ± 0.03 %ID/g | tissue uptake at 1 h [14]: 0.66 ± 0.16 %ID/g | tissue uptake at 1 h [15]: 1.71 ± 0.44 %ID/g | tissue uptake at 1 h [16]: 0.54 ± 0.03 %ID/g | tissue uptake at 1 h [17]: 0.29 ± 0.07 %ID/g | tissue uptake at 1 h [18]: 0.1 ± 0.04 %ID/g | tissue uptake at 1 h [19]: 0.05 ± 0.01 %ID/g | tissue uptake at 1 h [20]: 0.02 ± 0.01 %ID/g | tissue uptake at 1 h [21]: 0.27 ± 0.1 %ID/g | tissue uptake at 1 h [22]: 0.05 ± 0.02 %ID/g | tissue uptake at 1 h [23]: 0.52 ± 0.14 %ID/g | tissue uptake at 1 h [24]: 0.2 ± 0.05 %ID/g | tissue uptake at 1 h [25]: 11.3 ± 0.97 %ID/g | tissue uptake at 1 h [26]: 3.58 ± 1.14 %ID/g | tissue uptake at 1 h [27]: 0.54 ± 0.13 %ID/g | tissue uptake at 1 h [28]: 0.61 ± 0.1 %ID/g | tissue uptake at 1 h [29]: 1.11 ± 0.43 %ID/g | tissue uptake at 1 h [30]: 0.37 ± 0.08 %ID/g | tissue uptake at 1 h [31]: 1.52 ± 0.39 %ID/g | tissue uptake at 1 h [32]: 0.61 ± 0.15 %ID/g | tissue uptake at 1 h [33]: 0.35 ± 0.08 %ID/g | tissue uptake at 1 h [34]: 0.12 ± 0.03 %ID/g | tissue uptake at 1 h [35]: 2.25 ± 0.59 %ID/g | tissue uptake at 1 h [36]: 3.12 ± 0.89 %ID/g | tissue uptake at 1 h [37]: 0.72 ± 0.02 %ID/g | tissue uptake at 1 h [38]: 0.96 ± 0.2 %ID/g | tissue uptake at 1 h [39]: 0.53 ± 0.15 %ID/g | tissue uptake at 1 h [40]: 0.24 ± 0.1 %ID/g | tissue uptake at 1 h [41]: 0.38 ± 0.06 %ID/g | tissue uptake at 1 h [42]: 0.77 ± 0.29 %ID/g | tissue uptake at 1 h [43]: 0.76 ± 0.29 %ID/g | tissue uptake at 1 h [44]: 0.2 ± 0.06 %ID/g

CC(C)C[C@@H](CN1CC(F)(F)C[C@H]1C(N)=O)NC(=O)[C@H](Cc1c[nH]cn1)NC(=O)CN(C)C(=O)[C@@H](NC(=O)[C@H](C)NC(=O)[C@H](Cc1c[nH]c2ccccc12)NC(=O)[C@H](CCC(N)=O)NC(=O)[C@@H](Cc1ccccc1)NC(=O)CN1CCC(NC(=O)CN2CCN(CC(=O)O)CCN(CC(=O)O)CCN(CC(=O)O)CC2)CC1)C(C)C [[^68Ga]Ga-LW02080, metal not drawn]
tissue to tissue ratio at 1 h [1]: 0.87 ± 0.15 | tissue to tissue ratio at 1 h [2]: 22.7 ± 4.13 | tissue to tissue ratio at 1 h [3]: 5.52 ± 0.68 | tissue to tissue ratio at 1 h [4]: 69.8 ± 13.7 | tissue to tissue ratio at 1 h [5]: 0.14 ± 0.03 | tissue to tissue ratio at 1 h [6]: 3.18 ± 0.75 | tissue to tissue ratio at 1 h [7]: 3.61 ± 0.14 | tissue to tissue ratio at 1 h [8]: 117 ± 18.6 | tissue to tissue ratio at 1 h [9]: 3.47 ± 0.64 | tissue to tissue ratio at 1 h [10]: 18.4 ± 2.86 | tissue uptake at 1 h [11]: 1.71 ± 0.39 %ID/g | tissue uptake at 1 h [12]: 7.36 ± 1.33 %ID/g | tissue uptake at 1 h [13]: 0.69 ± 0.05 %ID/g | tissue uptake at 1 h [14]: 0.39 %ID/g | tissue uptake at 1 h [15]: 2.02 ± 0.7 %ID/g | tissue uptake at 1 h [16]: 0.33 ± 0.08 %ID/g | tissue uptake at 1 h [17]: 0.31 ± 0.06 %ID/g | tissue uptake at 1 h [18]: 0.11 ± 0.02 %ID/g | tissue uptake at 1 h [19]: 0.06 ± 0.03 %ID/g | tissue uptake at 1 h [20]: 0.01 %ID/g | tissue uptake at 1 h [21]: 0.25 ± 0.04 %ID/g | tissue uptake at 1 h [22]: 0.03 ± 0.01 %ID/g | tissue uptake at 1 h [23]: 0.66 ± 0.18 %ID/g | tissue uptake at 1 h [24]: 0.11 ± 0.03 %ID/g | tissue uptake at 1 h [25]: 11.2 ± 1.02 %ID/g | tissue uptake at 1 h [26]: 2.42 ± 0.81 %ID/g | tissue uptake at 1 h [27]: 0.33 ± 0.1 %ID/g | tissue uptake at 1 h [28]: 0.3 ± 0.09 %ID/g | tissue uptake at 1 h [29]: 1.05 ± 0.39 %ID/g | tissue uptake at 1 h [30]: 0.31 ± 0.07 %ID/g | tissue uptake at 1 h [31]: 1.52 ± 0.44 %ID/g | tissue uptake at 1 h [32]: 0.28 ± 0.05 %ID/g | tissue uptake at 1 h [33]: 0.53 ± 0.06 %ID/g | tissue uptake at 1 h [34]: 0.06 ± 0.02 %ID/g | tissue uptake at 1 h [35]: 0.51 ± 0.18 %ID/g | tissue uptake at 1 h [36]: 0.38 ± 0.04 %ID/g | tissue uptake at 1 h [37]: 1.04 ± 0.48 %ID/g | tissue uptake at 1 h [38]: 0.24 ± 0.07 %ID/g | tissue uptake at 1 h [39]: 0.56 ± 0.17 %ID/g | tissue uptake at 1 h [40]: 0.18 ± 0.05 %ID/g | tissue uptake at 1 h [41]: 0.38 ± 0.2 %ID/g | tissue uptake at 1 h [42]: 0.08 ± 0.04 %ID/g | tissue uptake at 1 h [43]: 0.63 ± 0.2 %ID/g | tissue uptake at 1 h [44]: 0.12 ± 0.03 %ID/g
